What all share (type): biochemical
The target of one test is T1, ATX (autotaxin) (Homo sapiens, UniProt Q13822).
T1 construct: purchased Cayman 10803
As to the kind of experiment: Autotaxin Inhibition Screening Assay (choline release from LPC, LPC-CR). The settings on record: for inhibition at 4 µM: 4 μM compound; for inhibition at 20 µM: 20 μM compound; for inhibition at 50 µM: 50 μM compound. The protocol: ATX (autotaxin) activity was measured by choline release from LPC in presence or absence of test compounds (Compounds 1˜83; at concentrations of 4 μM, 20 μM and 50 μM). Twenty (20) ng ATX (10803, Cayman, MI, USA) was incubated with 100 μM 14:0 LPC (855575P, Avanti, AL, USA) in a final volume of 100 μL buffer containing 50 mM Tris pH 8.0, 0.01% Triton X-100, 50 mM CaCl2, 1 unit/ml choline oxidase, 2 unit/ml horseradish peroxidase (HRP), 2 mM homovanilic acid (HVA). The relative amount of released choline was measured by HVA fluorescence in a 96-well plate. Fluorescent intensity was determined at λex/λem=320/450 nm every 60 sec for 90 min with a SpectraMax i3 (Molecular Devices, CA, USA). Data analysis was performed using GraphPad Prism (GraphPad, La Jolla CA, USA). Inhibition %=[1−(SlopeTA−SlopeBlank)/(SlopeVehicle−SlopeBlank)]×100% HDAC Inhibition Screening Assay

Another test has as its target T2, HDAC1 (Homo sapiens, UniProt Q13547).
T2 construct: purchased Enzo Life Sciences
As to the kind of experiment: HDAC Inhibition Screening Assay (FLUOR DE LYS Fluorimetric Drug Discovery Kit), HDAC1. The settings on record: for inhibition at 2 µM: 2 μM compound; for inhibition at 10 µM: 10 μM compound; for inhibition at 50 µM: 50 μM compound. The protocol:
(§1) The HDAC1/HDAC2/HDAC3 in vitro activities are detected by Enzo Life Sciences' HDAC1/HDAC2/HDAC3 Fluorimetric Drug Discovery Kit. The assay is based on the FLUOR DE LYS® Substrate and FLUOR DE LYS® Developer combination. The assay procedure has two steps. First, the FLUOR DE LYS® Substrate, which comprises an acetylated lysine side chain, is incubated with HDAC1/HDAC2/HDAC3, respectively. Deacetylation of the substrate sensitizes the substrate so that, in the second step, treatment with the FLUOR DE LYS® Developer produces a fluorophore. The signals of the test compounds (Compounds 1˜83; at concentrations of 2 μM, 10 μM and 50 μM) in 96-well plates are detected at 360 nm or 485 nm excitation and 460 nm or 530 nm emission with a Molecular Devices SpectraMax i3 Imaging Cytometer. The HDAC1/HDAC2/HDAC3 activities are expressed in percentage of basal control minus baseline control.

The target in a further test is T3, HDAC2 (Homo sapiens, UniProt Q92769).
T3 construct: purchased Enzo Life Sciences
T3 sequence (Q92769 whole entry): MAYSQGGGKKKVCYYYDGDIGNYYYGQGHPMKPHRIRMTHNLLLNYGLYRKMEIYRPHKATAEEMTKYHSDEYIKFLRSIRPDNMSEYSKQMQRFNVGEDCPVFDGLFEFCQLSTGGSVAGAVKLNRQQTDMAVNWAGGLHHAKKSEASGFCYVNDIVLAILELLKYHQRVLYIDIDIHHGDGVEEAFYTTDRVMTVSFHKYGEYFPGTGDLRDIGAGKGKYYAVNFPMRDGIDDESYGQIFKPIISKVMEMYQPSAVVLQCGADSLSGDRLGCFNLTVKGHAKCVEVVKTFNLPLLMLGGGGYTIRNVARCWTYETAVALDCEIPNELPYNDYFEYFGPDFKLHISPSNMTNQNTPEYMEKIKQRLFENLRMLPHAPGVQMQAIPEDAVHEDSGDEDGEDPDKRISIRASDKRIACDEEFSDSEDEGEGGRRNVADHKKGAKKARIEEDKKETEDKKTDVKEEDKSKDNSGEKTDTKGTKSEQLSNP
Briefly: HDAC Inhibition Screening Assay (FLUOR DE LYS Fluorimetric Drug Discovery Kit), HDAC2. The settings on record: for inhibition at 2 µM: 2 μM compound; for inhibition at 10 µM: 10 μM compound; for inhibition at 50 µM: 50 μM compound. The protocol: as §1

The next test addresses T4, HDAC3 (Homo sapiens, UniProt O15379).
T4 construct: purchased Enzo Life Sciences
As to the kind of experiment: HDAC Inhibition Screening Assay (FLUOR DE LYS Fluorimetric Drug Discovery Kit), HDAC3. The settings on record: for inhibition at 2 µM: 2 μM compound; for inhibition at 10 µM: 10 μM compound; for inhibition at 50 µM: 50 μM compound. The protocol: as §1

T2 sequence (Q13547 whole entry): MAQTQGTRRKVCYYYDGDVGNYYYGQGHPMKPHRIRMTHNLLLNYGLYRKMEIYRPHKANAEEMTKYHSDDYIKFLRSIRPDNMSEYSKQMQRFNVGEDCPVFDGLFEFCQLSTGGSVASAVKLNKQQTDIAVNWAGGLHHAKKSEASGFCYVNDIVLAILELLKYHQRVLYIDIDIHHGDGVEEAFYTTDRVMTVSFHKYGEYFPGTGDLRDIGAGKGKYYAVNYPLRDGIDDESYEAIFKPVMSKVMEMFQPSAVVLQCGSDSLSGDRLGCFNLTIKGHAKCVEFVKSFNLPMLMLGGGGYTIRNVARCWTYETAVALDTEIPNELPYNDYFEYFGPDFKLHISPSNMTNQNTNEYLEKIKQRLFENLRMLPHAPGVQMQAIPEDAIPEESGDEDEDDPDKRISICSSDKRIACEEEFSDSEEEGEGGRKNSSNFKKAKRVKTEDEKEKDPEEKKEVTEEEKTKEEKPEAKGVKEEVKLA
T4 sequence (O15379 whole entry): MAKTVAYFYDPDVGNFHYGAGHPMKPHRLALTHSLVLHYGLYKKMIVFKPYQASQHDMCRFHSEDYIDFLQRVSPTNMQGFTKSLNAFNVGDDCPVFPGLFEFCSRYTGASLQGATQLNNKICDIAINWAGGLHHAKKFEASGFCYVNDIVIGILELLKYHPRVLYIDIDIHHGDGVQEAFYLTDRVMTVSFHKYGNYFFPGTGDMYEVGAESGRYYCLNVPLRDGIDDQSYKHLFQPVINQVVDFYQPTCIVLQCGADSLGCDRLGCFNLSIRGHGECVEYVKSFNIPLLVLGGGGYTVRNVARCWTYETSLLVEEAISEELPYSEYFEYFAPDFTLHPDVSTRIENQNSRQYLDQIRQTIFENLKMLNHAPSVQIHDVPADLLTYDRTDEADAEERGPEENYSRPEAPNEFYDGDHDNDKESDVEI
T4 sequence (O75376 395-489 partner limits assumed): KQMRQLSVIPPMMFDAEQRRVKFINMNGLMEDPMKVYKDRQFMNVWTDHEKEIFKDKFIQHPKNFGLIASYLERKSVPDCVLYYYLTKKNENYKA

The inhibition is the drop in the measured response relative to a control, in per cent. Regarding `O=C(/C=C/c1ccc(COc2ccc3c(c2)CCCC3=O)cc1)NO` [Compound 70, (E)-N-hydroxy-3-(4-(((5-oxo-5,6,7,8-tetrahydronaphthalen-2-yl)oxy)-methyl)phenyl)acrylamide], on ATX (autotaxin), the inhibition at 4 µM is below 50%, the inhibition at 20 µM lay within 50 to 80% and the inhibition at 50 µM lay in the range of 50 to 80%. Also, at HDAC1, the inhibition at 2 µM is 50 to 80%, the inhibition at 10 µM was above 80% and the inhibition at 50 µM is above 80%. Moreover, at HDAC2, the inhibition at 2 µM is above 80%, the inhibition at 10 µM is above 80% and the inhibition at 50 µM was above 80%. On HDAC3, the inhibition at 2 µM was above 80%, the inhibition at 10 µM was above 80% and the inhibition at 50 µM is above 80%.
Consider `Nc1cc(F)ccc1NC(=O)/C=C/c1ccc2c(c1)CCC2NC(=O)c1cc(C(F)(F)F)cc(C(F)(F)F)c1` (stereo not drawn) [Compound 21, (E)-N-(5-(3-((2-amino-4-fluorophenyl)amino)-3-oxoprop-1-en-1-yl)-2,3-dihydro-1H-inden-1-yl)-3,5-bis(trifluoromethyl)benzamide], for which, on ATX (autotaxin), the inhibition at 4 µM was below 50%, the inhibition at 20 µM is below 50% and the inhibition at 50 µM is below 50%. On HDAC1, the inhibition at 2 µM is below 50%, the inhibition at 10 µM is below 50% and the inhibition at 50 µM was below 50%. Moreover, at HDAC2, the inhibition at 2 µM was below 50%, the inhibition at 10 µM was below 50% and the inhibition at 50 µM was below 50%. For the same molecule, at HDAC3, the inhibition at 2 µM was below 50%, the inhibition at 10 µM is below 50% and the inhibition at 50 µM was below 50%.
At ATX (autotaxin), `O=C(/C=C/c1ccc(CNC(=O)COc2ccc3c(c2)CC/C(=C\c2cc(C(F)(F)F)cc(C(F)(F)F)c2)C3=O)cc1)NO` [Compound 75] gave an inhibition at 4 µM of 50 to 80%, an inhibition at 20 µM of 50 to 80% and an inhibition at 50 µM of 50 to 80%. On HDAC1, the inhibition at 2 µM is below 50%, the inhibition at 10 µM was below 50% and the inhibition at 50 µM fell in the range of 50 to 80%. In addition, on HDAC2, the inhibition at 2 µM is below 50%, the inhibition at 10 µM is below 50% and the inhibition at 50 µM is 50 to 80%. At HDAC3, the inhibition at 2 µM is below 50%, the inhibition at 10 µM was below 50% and the inhibition at 50 µM is 50 to 80%.
At ATX (autotaxin), `CCN(CC)c1ccc(C(=O)NC2CCc3cc(/C=C/C(=O)Nc4ccc(F)cc4N)ccc32)cc1` (stereo not drawn) [Compound 27] returned an inhibition at 4 µM below 50%, an inhibition at 20 µM below 50% and an inhibition at 50 µM below 50%. Further, at HDAC1, the inhibition at 2 µM was below 50%, the inhibition at 10 µM is below 50% and the inhibition at 50 µM is below 50%. In addition, at HDAC2, the inhibition at 2 µM was below 50%, the inhibition at 10 µM is below 50% and the inhibition at 50 µM was below 50%. Also, on HDAC3, the inhibition at 2 µM is below 50%, the inhibition at 10 µM is below 50% and the inhibition at 50 µM is below 50%.
On to `O=C(CCCCCC(=O)Nc1ccc2c(c1)CC/C(=C\c1cc(C(F)(F)F)cc(C(F)(F)F)c1)C2=O)NO` [Compound 12, (E)-N1-(6-(3,5-bis(trifluoromethyl)benzylidene)-5-oxo-5,6,7,8-tetrahydronaphthalen-2-yl)-N7-hydroxyheptanediamide], for which, on ATX (autotaxin), the inhibition at 4 µM was above 80%, the inhibition at 20 µM was above 80% and the inhibition at 50 µM was above 80%. On HDAC1, the inhibition at 2 µM is below 50%, the inhibition at 10 µM lay in the range of 50 to 80% and the inhibition at 50 µM is above 80%. At HDAC2, the inhibition at 2 µM was 50 to 80%, the inhibition at 10 µM is above 80% and the inhibition at 50 µM is above 80%. In addition, at HDAC3, the inhibition at 2 µM lay in the range of 50 to 80%, the inhibition at 10 µM is above 80% and the inhibition at 50 µM was above 80%.
On ATX (autotaxin), `O=C(NO)c1ccc(COc2ccc3c(c2)CCC(Cc2cc(C(F)(F)F)cc(C(F)(F)F)c2)C3=O)cc1` (stereo not drawn) [Compound 68, 4-(((6-(3,5-bis(trifluoromethyl)benzyl)-5-oxo-5,6,7,8-tetrahydronaphthalen-2-yl)oxy)methyl)-N-hydroxybenzamide] gave an inhibition at 4 µM below 50%, an inhibition at 20 µM below 50% and an inhibition at 50 µM below 50%. For the same molecule, on HDAC1, the inhibition at 2 µM was below 50%, the inhibition at 10 µM was below 50% and the inhibition at 50 µM was below 50%. At HDAC2, the inhibition at 2 µM was below 50%, the inhibition at 10 µM was below 50% and the inhibition at 50 µM was below 50%. In addition, at HDAC3, the inhibition at 2 µM is below 50%, the inhibition at 10 µM is below 50% and the inhibition at 50 µM is below 50%.
On to `O=C(CCCCCNC(=O)c1ccc2c(c1)CC/C(=C\c1cc(C(F)(F)F)cc(C(F)(F)F)c1)C2=O)NO` [Compound 79, (E)-6-(3,5-bis(trifluoromethyl)benzylidene)-N-(6-(hydroxyamino)-6-oxohexyl)-5-oxo-5,6,7,8-tetrahydronaphthalene-2-carboxamide], for which, at ATX (autotaxin), the inhibition at 4 µM was above 80%, the inhibition at 20 µM is above 80% and the inhibition at 50 µM is above 80%. Moreover, on HDAC1, the inhibition at 2 µM fell in the range of 50 to 80%, the inhibition at 10 µM is above 80% and the inhibition at 50 µM was above 80%. Besides, on HDAC2, the inhibition at 2 µM lay within 50 to 80%, the inhibition at 10 µM was above 80% and the inhibition at 50 µM is above 80%. On HDAC3, the inhibition at 2 µM was 50 to 80%, the inhibition at 10 µM was above 80% and the inhibition at 50 µM is above 80%.
`Nc1cc(F)ccc1NC(=O)CCCCCCC(=O)NC1CCc2cc(Br)ccc21` (stereo not drawn) [Compound 39, N^1-(2-amino-4-fluorophenyl)-N8-(5-bromo-2,3-dihydro-1H-inden-1-yl)octanediamide]: at ATX (autotaxin), the inhibition at 4 µM was below 50%, the inhibition at 20 µM is below 50% and the inhibition at 50 µM was below 50%. Also, on HDAC1, the inhibition at 2 µM is below 50%, the inhibition at 10 µM was below 50% and the inhibition at 50 µM was below 50%. Also, at HDAC2, the inhibition at 2 µM was below 50%, the inhibition at 10 µM is below 50% and the inhibition at 50 µM was below 50%. In addition, at HDAC3, the inhibition at 2 µM was below 50%, the inhibition at 10 µM was 50 to 80% and the inhibition at 50 µM is 50 to 80%.
At ATX (autotaxin), `Cc1[nH]c2ccccc2c1CCNC1CCc2cc(/C=C/C(=O)NO)ccc21` (stereo not drawn) [Compound 60, (E)-N-hydroxy-3-(1-((2-(2-methyl-1H-indol-3-yl)ethyl)amino)-2,3-dihydro-1H-inden-5-yl)acryl amide] registered an inhibition at 4 µM below 50%, an inhibition at 20 µM below 50% and an inhibition at 50 µM below 50%. On HDAC1, the inhibition at 2 µM was above 80%, the inhibition at 10 µM is above 80% and the inhibition at 50 µM is above 80%. Also, at HDAC2, the inhibition at 2 µM was above 80%, the inhibition at 10 µM was above 80% and the inhibition at 50 µM is above 80%. Also, on HDAC3, the inhibition at 2 µM is above 80%, the inhibition at 10 µM was above 80% and the inhibition at 50 µM was above 80%.
At ATX (autotaxin), `COc1ccc(CCNC2CCc3cc(/C=C/C(=O)NO)ccc32)cc1` (stereo not drawn) [Compound 52, (E)-N-hydroxy-3-(1-((4-methoxyphenethyl)amino)-2,3-dihydro-1H-inden-5-yl)acrylamide] showed an inhibition at 4 µM below 50%, an inhibition at 20 µM below 50% and an inhibition at 50 µM below 50%. At HDAC1, the inhibition at 2 µM is above 80%, the inhibition at 10 µM was above 80% and the inhibition at 50 µM is above 80%. Moreover, at HDAC2, the inhibition at 2 µM is above 80%, the inhibition at 10 µM is above 80% and the inhibition at 50 µM is above 80%. At HDAC3, the inhibition at 2 µM is above 80%, the inhibition at 10 µM is above 80% and the inhibition at 50 µM was above 80%.
In the case of `CN(C(=O)OCc1cc(C(F)(F)F)cc(C(F)(F)F)c1)C1CCc2cc(/C=C/C(=O)NO)ccc21` (stereo not drawn) [Compound 64, 3,5-bis(trifluoromethyl)benzyl (E)-(5-(3-(hydroxyamino)-3-oxoprop-1-en-1-yl)-2,3-dihydro-1H-inden-1-yl)(methyl)carbamate], at ATX (autotaxin), the inhibition at 4 µM lay in the range of 50 to 80%, the inhibition at 20 µM lay within 50 to 80% and the inhibition at 50 µM lay in the range of 50 to 80%. At HDAC1, the inhibition at 2 µM was in the range of 50 to 80%, the inhibition at 10 µM is above 80% and the inhibition at 50 µM was above 80%. Also, at HDAC2, the inhibition at 2 µM was in the range of 50 to 80%, the inhibition at 10 µM is above 80% and the inhibition at 50 µM was above 80%. For the same molecule, on HDAC3, the inhibition at 2 µM was below 50%, the inhibition at 10 µM lay within 50 to 80% and the inhibition at 50 µM was above 80%.

Values taken from patent US12162820B2 (TAIWANJ PHARMACEUTICALS CO., LTD., priority 2019, dated 2024).
